Test results published in patent US11655308B2, “HM-3 fusion protein and application thereof” (TASLY BIOPHARMACEUTICALS CO., LTD., priority 2017, dated 2023).
No end group written: not given here.

Legend:
[1] = test system: transgenic blood vessel fluorescent zebrafish; test: In vivo anti-angiogenesis in zebrafish (SIVs area); parameters: area of SIVs: unit not given here; conditions: 500 ng/tail, 24 h
[2] = test system: human macrophage U937; test: TNF-α production by LPS-induced human macrophage U937 (ELISA); format: cell-based; conditions: LPS 1 μg/mL, 48 h, negative group 77.6±19.6
Experimental: Experimental method: Human macrophage U937 was cultured in RPMI-1640 medium containing 10% fetal bovine serum and double antibodies in a constant temperature incubator at 37° C. under the condition of 5% CO2, and the medium was replaced every 2 days. U937 cells in the logarithmic phase were collected, resuspended and adjusted to the concentration of 5×10^5/mL. 100 μL of cells was added to each well of a 96-well plate overnight and induced with LPS (1 μg/mL) in the following day, where n=3. At the same time, the cells were treated with agents, and respectively divided into a positive control group adalimumab, an HM-3 polypeptide group, an mPEG-SC-HM-3 polypeptide group, an HM-3 fusion protein (TSL-1, TSL-2, TSL-3, TSL-4) group, and the specific dosing scheme was shown in Table 5.
48 h after the agents worked, culture medium was collected and centrifuged, and supernatant was taken to measure the content of TNF-α therein by ELISA. Test results were expressed as mean±SD, and statistical T test was performed. *P<0.05 indicates significant difference, **P<0.01 indicates extremely significant difference. Based upon the results, the efficacy of the HM-3 fusion protein against rheumatoid arthritis was screened.

[3] = test system: type-II CIA mice; test: Chronic inflammation model of type-II CIA in mice; format: in vivo, Balb/c mice
Experimental: Experimental method: Balb/c mice were taken and immunized for the first time. The concentration of type-II bovine collagen was 4 mg/mL. On the day of the experiment (day 0), complete Freund's adjuvant (CFA) and CII solution were mixed evenly in equal volume and emulsified. Excepting for the normal control group of Balb/c mice, mice in each group were sensitized by intracutaneous injection of 50 μL emulsifier at the end of tails. 21 days later, mice were re-immunized with the same dose of emulsifier at the end of tails, and incomplete Freund's adjuvant (IFA) served as an adjuvant at this time. Redness and swelling other arthritic symptoms appeared on toe joints of mice models approximately on the 29th day of the experiment, indicating successful modeling.
Animals in the modeling group on the 30th day of the experiment were randomly divided into:
There were 12 groups in total, and there were 8 pieces of mice in remaining each group excepting for 12 pieces in G1 (normal control group) and G2 (model group).
Measurement of mice weight: mice were weighed by an electronic balance every two days.
Measurement of sole thickness: the thickness of left, right and hind soles for each mouse was measured by a vernier caliper every two days.
Measurement of ankle joint width: the width of left and right ankle joints for each mouse was measured by vernier caliper every two days.
Arthritis index (AI) score: the severity of arthritis for each mouse was evaluated by a paw joint scoring method. 0: no redness and swelling; 1: redness and swelling of little toe joints; 2: redness and swelling of toe joints and toes; 3: redness and swelling of the portion below ankle joints; 4: redness and swelling of toe joints, toes and ankle joints. Scoring was performed once every two days until the end of the experiment.
Blood was collected from the orbit and serum was separated. After mice were killed by cervical dislocation, spleen and thymus were separated and weighed to calculate a spleen coefficient, and then the spleen and thymus were fixed in formalin stationary liquid.

[4] = test system: transgenic blood vessel fluorescent zebrafish; test: In vivo anti-angiogenesis in zebrafish (SIVs area); parameters: area of SIVs: unit not given here; conditions: for inhibiting effect on angiogenesis: 20 ng/tail; for inhibition rate of angiogenesis / area of SIVs: 24 h; for area of SIVs: normal control group 53193
Experimental: Experimental method: transgenic blood vessel fluorescent zebrafish was randomly selected and put into a six-well plate with 30 fish per well, and intravenously injected HM-3 polypeptide, TSL-1 fusion protein, TSL-2 fusion protein, TSL-3 fusion protein and TSL-4 fusion protein respectively in accordance with the dosage of 20 ng/tail and 66 ng/tail; the dosage was […] in Avastin positive control and the injection volume was 20 nL/tail; the zebrafish injected 20 nL/tail of buffer solution served as a solvent control group, and the zebrafish without any treatment served as a normal control group. 10 pieces of zebrafish were randomly selected from each group after processed for 24 h to observe the intestinal vessels of the transgenic zebrafish by a fluorescence microscope, as well as to take and maintain images. Image analysis was performed by Nikon MS-Elements D 3.10 to calculate the area (S) of SIVs (subintestinal vessel, SIV). The calculation formula of angiogenesis inhibition rate was as follows: Angiogenesis inhibition rate (%)=(1−S(Test sample group)/S(Normal control group))×100%
Statistical analysis was performed by variance analysis and Dunnett's T-test and the results were expressed as Mean±SD, where p<0.05 indicates a significant difference.

[5] = test system: mice splenic lymphocyte proliferation stimulated by ConA; format: cell-based
Experimental: Experimental method: mice orbit was by bloodletting to death, and immediately immersed in 75% ethanol for 5-10 min, and then the spleen was removed on a clean bench and placed in PBS. The spleen was placed on a sterile cell strainer (200 mesh) and ground with a syringe nozzle; during grinding process, PBS was added continuously; the slurry was collected and centrifuged (1000 rpm for 5 min), then cells were washed 3 times with Tris-ammonium chloride solution, and washed again with a medium, and then re-suspended in the medium. Finally, trypan blue living cell staining was performed on the cells, and the survival rate was more than 95%. The concentration of viable cells was adjusted to 2×10^6/mL. […] was added to each well of a 96-well plate, meanwhile, ConA (concanavalin to simulate splenocyte proliferation) and drugs were added to each well. Six duplicates were set in each group.
The 96-well plate was incubated for 48 h in a 5% CO2 incubator at 37° C. 5 mg/mL of MTT was added to the 96-well plate, 20 μL for each well, and then it was incubated continuously for 4 h in the incubator. The culture medium in the 96-well plate was discarded and 100 μL DMSO was added to each well and mixed gently. Absorbance was measured by a microplate reader at the wavelength of 570 nm and reference wavelength of 630 nm.
Proliferation inhibition rate (PI) was calculated according to formula:
[formula] wherein, Atest is the absorbance of dosing group, and Acontrol is the absorbance of negative control. Test results were expressed as mean±SD, and statistical T test was performed. *P<0.05 indicates significant difference, **P<0.01 indicates extremely significant difference. Based upon the results, the efficacy of the fusion protein against rheumatoid arthritis was screened.
In the P4 control group, TSL-4 fusion protein served as a control agent.

Row | Molecule | inhibition rate of angiogenesis [1] | area of SIVs ([1]; normal control group 53193) | TNF-α content in cell supernatant ([2]; high-dosage (Table 5: 18 μmol/L)) | TNF-α content in cell supernatant ([2]; low-dosage (Table 5: 9 μmol/L)) | ankle width ([3]; G4 HM-3 1.6 mg/kg IV 2 times/d, 30 times, day 60, model G2 4.83±0.20) | arthritis scoring ([3]; G4 HM-3 1.6 mg/kg IV 2 times/d, 30 times, day 60, model G2 11.5±1.7) | paw circumference ([3]; G4 HM-3 1.6 mg/kg IV 2 times/d, 30 times, day 60, model G2 13.62) | weight of mice ([3]; G4 HM-3 1.6 mg/kg IV 2 times/d, 30 times, day 60, model G2 19.5±1.6) | spleen weight ([3]; G4 HM-3 1.6 mg/kg IV 2 times/d, 30 times, day 60, model G2 114.6±14.5) | therapeutic effect compared with group G3 (positive Adalimumab group) ([3]; groups G4 (HM-3), G10 (TSL-4 12.5 mg/kg once for 5 days, 3 times)) | inhibiting effect on angiogenesis [4] | inhibition rate of angiogenesis ([4]; 20 ng/tail iv) | area of SIVs ([4]; 20 ng/tail iv) | inhibition rate of angiogenesis ([4]; 66 ng/tail iv) | area of SIVs ([4]; 66 ng/tail iv) | TNF-α content in cell supernatant ([2]; 9 μM) | optimal (best) inhibition rate of splenic lymphocyte proliferation ([5]; ConA 5 μg/mL, 48 h, MTT, best of the tested concentrations) | inhibition rate compared with the positive control group ([5]; positive group Dexamethasone 50 μmol/L)
1 | Avastin: positive control in the zebrafish angiogenesis test | 29% | 37853 |  |  |  |  |  |  |  |  |  |  |  |  |  |  |  | 
2 | IVRRADRAAVPGGGGRGD [HM-3, Ile-Val-Arg-Arg-Ala-Asp-Arg-Ala-Ala-Val-Pro-Gly-Gly-Gly-Gly-Arg-Gly-Asp] |  |  | 58.9 ± 10.6 pg/mL | 83.9 ± 20.4 pg/mL | 4.21±0.15 mm | 7.8±1.4 | 11.41±0.53 mm | 20.9 ± 1.5 g | 94.2 ± 13.3 mg | slightly lower than that of the group G3 | no inhibiting effect | 2% | 52186 | 20% | 42492 |  |  | 
3 | IgG2-Fc-(GGGGS)3-HM-3 (protein) VECPPCPAPPVAGPSVFLFPPKPKDTLMISRTPEVTCVVVDVSHEDPEVQFNWYVDGVEVHNAKTKPREEQFNSTFRVVSVLTVVHQDWLNGKEYKCKVSNKGLPAPIEKTISKTKGQPREPQVYTLPPSREEMTKNQVSLTCLVKGFYPSDISVEWESNGQPENNYKTTPPMLDSDGSFFLYSKLTVDKSRWQQGNVFSCSVMHEALHNHYTQKSLSLSPGKGGGGSGGGGSGGGGSIVRRADRAAVPGGGGRGD |  |  |  |  |  |  |  |  |  |  | significant inhibitory effect | 23% | 40705 | 27% | 38660 | 38.6 ± 12.9 pg/mL | 61.4% | higher than that of the positive control group
